Data published in patent US20090082258A1, “Means and Methods for Treating Advanced Stage Neuroblastoma” (priority 2005, published 2009).
Entries after “also recorded” stand apart in the source; their conditions may differ.

Tests used:
[1] = tested on: SH-EP neuroblastoma cells; test: Neuronal differentiation of SH-EP neuroblastoma cells (phase contrast microscopy, immunocytochemistry); assay type: cell-based
Procedure: FIG. 1: HC-Toxin induces neuronal differentiation in SH-EP MYCN-single copy neuroblastoma cells. Cells with neurites longer than twice the diameter of the cell body have been deemed as differentiated cells.
(§1) 5×10*4 SH-EP neuroblastoma cells were cultured in RPMI 1640 medium (including 10% FBS, 1% Pen/Strep). After 24 hours of culture, the cells were treated up to 96 h with 10 to 20 nM HC-Toxin or, as solvent control, with methanol (MeOH) at 37° C., 5% CO2. The morphological changes of the cells were investigated using phase contrast microscopy. After 36 h of treatment, neurite outgrowth was observed. After 72 h of treatment, said neurite outgrowth reached its maximum and was constant if treatment was prolonged (not shown). […] More than 95% of the SH-EP neuroblastoma cells differentiate morphologically when treated with 15 nM HC-Toxin (see FIG. 1c).

[2] = tested on: SH-EP neuroblastoma cells; test: Proliferation of SH-EP neuroblastoma cells; assay type: cell-based; conditions: 10 to 20 nM
Procedure: (§2) FIG. 2: Influence of HC-Toxin upon proliferation, cell cycle, and apoptosis of SH-EP neuroblastoma cells.
as §1
(§3) An increase in apoptotic cells from 5% to 20% was observed after 48 h to 72 h of HC-toxin treatment in a dose dependent manner (FIG. 2c).

[3] = tested on: SH-EP neuroblastoma cells; test: Cell cycle of SH-EP neuroblastoma cells; assay type: cell-based; conditions: 15 nM vs control cells
Procedure: as §2, §3

[4] = tested on: SH-EP neuroblastoma cells; test: Apoptosis of SH-EP neuroblastoma cells; assay type: cell-based; conditions: FIG. 2c
Procedure: as §2, §3

primary skin fibroblasts [5] = test: Proliferation of primary non-transformed skin fibroblasts; assay type: cell-based, human; conditions: 10-20 nM, same conditions as SH-EP
Procedure: (§4) FIG. 3: Influence of HC-Toxin upon proliferation and cell cycle of primary non-transformed skin fibroblasts.
(§5) In order to determine the effects of HC-Toxin on “normal” body cells, primary skin fibroblasts were treated under the same conditions.

primary skin fibroblasts [6] = test: Cell cycle of primary non-transformed skin fibroblasts; assay type: cell-based, human; conditions: 15 nM vs methanol control
Procedure: as §4, §5

[7] = tested on: MYCN amplified neuroblastoma cells (Be(2)-C); test: Proliferation of MYCN amplified neuroblastoma cells Be(2)-C; assay type: cell-based; conditions: stronger inhibition than in SH-EP
Procedure: (§6) FIG. 4: Influence of HC-Toxin upon the proliferation of MYCN amplified neuroblastoma cells and cells, which overexpress MYCN. (a) BE(2)-C neuroblastoma cells, (b) WAC2 neuroblastoma cells, and (c) Tet21N neuroblastoma cells.
(§7) MYCN amplified neuroblastoma cells (Be(2)-C), MYCN stably transfected SH-EP-neuroblastoma cells (WAC2) as well as SH-EP cells having an tetracycline inducible MYCN (Tet21N) were treated by HC-Toxin.

[8] = tested on: MYCN stably transfected SH-EP-neuroblastoma cells (WAC2); test: Proliferation of MYCN stably transfected SH-EP neuroblastoma cells WAC2; assay type: cell-based; conditions: stronger inhibition than in SH-EP
Procedure: as §6, §7

[9] = tested on: SH-EP cells having an tetracycline inducible MYCN (Tet21N); test: Proliferation of SH-EP cells with tetracycline inducible MYCN (Tet21N); assay type: cell-based; conditions: stronger inhibition than in SH-EP
Procedure: as §6, §7

[10] = tested on: nuclear histone deacetylases; test: Accumulation of acetylated histone H4 in SH-EP cells (Western blot); assay type: cell-based; conditions: 6 h, 15 mM HC-Toxin [sic]
Procedure: The cells were treated for 6 hours with HC-toxin or the indicated histone deacetylase inhibitors as well as all-trans retinoic acid. Whole-cell extracts were obtained and subjected to Western-Blot analysis using an antibody, which specifically recognizes acetylated histone H4 (H4 Acetyl).
SH-EP-neuroblastoma cells were treated with […] HC-Toxin for 6 h. Subsequently, accumulation of acetylated histone H4 was investigated.

various tumour cells [11] = test: Antitumoral effects in tumour cells, general statements and comparison with other agents; assay type: cell-based; conditions: higher concentration
Procedure: The differentiation inducing agent all-trans retinoic acid has to be administered in a 1000-fold higher concentration compared to HC-toxin, acts differently as compared with compounds of the general formula (I) and causes side effects known as the retinoic acid syndrome.
The compounds having a structure as shown in the general formula (I) elicit the aforementioned antitumoral effects in an extremely low dosage already, i.e. at nanomolar concentrations (5-20 nM), in various tumour cells. The mode of action of the compounds apparently encompasses inhibition of histone deacetylases. This finding is supported by the observation that treatment of MYCN single copy and amplified neuroblastoma cells with a compound of the present invention in nanomolar concentration (e.g. 15 nM) leads to the accumulation of acetylated H4-histones within one to six hours being an indicator for a histone deacetylase inhibitor.

various tumour cells [12] = conditions: cited from earlier work

CC1NC(=O)C(C)NC(=O)C2CCCN2C(=O)C(CCCCCC(=O)C2CO2)NC1=O (stereo not drawn) [HC-Toxin, Helminthosporium carbonum toxin]
SH-EP neuroblastoma cells that differentiate morphologically ([1]; 15 nM HC-Toxin, neurites longer than twice the diameter of the cell body): More than 95% | time of treatment after which neurite outgrowth reached its maximum ([1]; 10 to 20 nM, SH-EP cells): 72 h | time of treatment after which neurite outgrowth was observed ([1]; 10 to 20 nM, SH-EP cells): 36 h | inhibition of SH-EP neuroblastoma cell proliferation [2]: inhibits cell proliferation in a concentration dependent manner; also recorded: concentration-dependent inhibition | cell cycle distribution of SH-EP cells [3]: accumulation of the HC-Toxin treated cells in the G0/1 phase | induction of apoptosis in SH-EP cells [4]: induces apoptosis in a concentration dependent manner | proliferation of primary skin fibroblasts (primary skin fibroblasts [5]): No significant changes | proliferation of primary skin fibroblasts (primary skin fibroblasts [5]; listed as HC-toxin): has no influence upon the proliferation | cell cycle of primary skin fibroblasts (primary skin fibroblasts [6]): does not alter the cell cycle; also recorded: No significant changes | inhibition of proliferation of Be(2)-C cells [7]: efficiently inhibits proliferation | inhibition of proliferation of WAC2 cells [8]: efficiently inhibits proliferation | inhibition of proliferation of Tet21N cells [9]: efficiently inhibits proliferation | accumulation of acetylated histone H4 [10]: induces hyperacetylation of histone H4 | accumulation of acetylated histone H4 ([10]; listed as iHC-Toxin): induce accumulation of acetylated histone H4

CC1=C(/C=C/C(C)=C/C=C/C(C)=C/C(=O)O)C(C)(C)CCC1 [all-trans retinoic acid, reference compound]
accumulation of acetylated histone H4 [10]: no induction of hyperacetylation of histone H4 | concentration to be administered compared to HC-toxin (various tumour cells [11]): 1000 fold

CC(/C=C/C(=O)NO)=C\[C@@H](C)C(=O)c1ccc(N(C)C)cc1 [trichostatin A]
cytotoxic effects (various tumour cells [12]): strong cytotoxic effects

CCCC(CCC)C(=O)O [valproic acid]
efficient concentration (various tumour cells [12]; not achievable in vivo): only efficient in millimolar concentrations
